Assay results reported in PMC9374667 (Communications Biology, 2022).
“And” between values parts separate entries of the source, which are not always exact repeats. Identical values can stand only once.

Legend:
db/db mice [1] = assay: Body weight of db/db mice during 35-day treatment; format: in vivo; conditions: db/db mice
Protocol: (§1) The lean wild type control and the db/db control mice were given equal vehicle volume (0.5% CMC-Na solution). All mice were monitored for food intake, body weight, and fasting blood glucose during the 35-day trial. Glucose tolerance test (GTT) and insulin resistance test (ITT) were performed at 4 and 5 weeks of treatment, respectively. Metabolic analysis was performed at 5 weeks of treatment. At the end of the study, blood samples were taken through the retroorbital venous sinus of mice, fat depots (brown fat, inguinal subcutaneous fat, epididymal fat, perirenal fat and mesenteric fat depot) were dissected, weighed, and immediately frozen in liquid nitrogen and stored at −80 °C until required. Weight of fat depots are expressed in percentage (fat depots weight /bodyweight * 100%).

db/db mice [2] = assay: Fasting serum insulin levels (ELISA); format: in vivo; conditions: db/db mice; for insulin level (Figure 5b): fasting serum, individual mice 1-6; for Fasting serum insulin levels: 35 days of treatment, vs vehicle
Protocol: Mice were fasted for 4 h for insulin resistance test and intraperitoneally injected with 1 unit/kg of insulin. Blood glucose levels were measured from the tail vein blood at 0, 15, 30, 45, 60, 90, and 120 min after injection. Plasma insulin levels were measured using an ultrasensitive mouse insulin ELISA kit (Nanjing Jiancheng Bioengineering Institute, Nanjing, China).

db/db mice [3] = assay: Weekly fasting glucose levels of db/db mice; format: in vivo; conditions: for Weekly fasting glucose levels of db/db mice (Figure 5a): individual mice 1-10, in mmol/L; for Fasting blood glucose level at the end of the treatment: mouse, in vivo
Protocol: as §1

p-TBK1, p-AMPKα, UCP1 = assay: Western blotting of TNF-α induced 3T3-L1 adipocytes; format: cell-based, Murine; parameters: p-TBK1 / p-AMPKα (western blotting, Figure 7j) / UCP1 (western blotting, Figure 7k): unit not given here; conditions: for p-TBK1: Figure 7i, replicates; for UCP1 (western blotting, Figure 7k) / p-AMPKα (western blotting, Figure 7j): 3T3-L1 adipocytes, replicates 1-3
Protocol: The adipose tissue or 3T3-L1 adipocytes were homogenized by ultrasound in an ice‐cold RIPA lysis buffer containing 1% PMSF and centrifuged at 12,000 × g at 4°C for 15 min to collect the supernatant. The BCA protein assay kit (Beyotime, Shanghai, China) was used to detect the total protein concentration. Proteins (20-30 μg) of the sample were separated by 10% SDS-PAGE gel and transferred onto polyvinylidene difluoride (PVDF) membranes. Then the PVDF membranes were blocked in 5% skim milk powder in TBS containing 1% Tween-20 (TBST) for 2 h at room temperature and washed with TBST for 3 times. The membranes were incubated with the appropriate primary antibody, IKKε (1:1000 dilution), TBK1 (1:1000 dilution), p-TBK1 Ser172 (1:1000 dilution), p-AMPKα Thr172 (1:1000 dilution), UCP1 (1:1000 dilution), and GAPDH (1:1000 dilution) in the blocking buffer solution at 4 °C overnight. After washing, the membranes were incubated with horseradish peroxidase-conjugated secondary antibodies (in 5% skim milk powder) for 1 h at room temperature. Finally, the membranes were treated with enhanced chemiluminescence agents (Tanon, Shanghai, China) and the signals were monitored using the Tanon 5200 multi chemiluminescent imaging system (Tanon, Shanghai, China).

CC(C)Cc1ccc(C(C)C(=O)[O-])cc1.COc1ccc2cc3[n+](cc2c1OC)CCc1cc2c(cc1-3)OCO2.O.O.O.O [BJ, berberine-ibuprofen]
Body weight (db/db mice [1]; 150 mg/kg gavage once per day, day 19, individual mice, 150 mg/kg): 39 grams | Body weight (db/db mice [1]; 150 mg/kg gavage once per day, day 22, individual mice, 150 mg/kg): 37 grams | Body weight (db/db mice [1]; 150 mg/kg gavage once per day, day 25, individual mice, 150 mg/kg): 37 grams and 44 grams | Body weight (db/db mice [1]; 150 mg/kg gavage once per day, day 28, individual mice, 150 mg/kg): 38 grams and 43 grams | Body weight (db/db mice [1]; 150 mg/kg gavage once per day, day 31, individual mice, 150 mg/kg): 40 grams and 46 grams | Body weight (db/db mice [1]; 150 mg/kg gavage once per day, day 34, individual mice, 150 mg/kg): 43 grams and 48 grams | Average body weight gain (db/db mice [1]; 150 mg/kg gavage once per day, day 35, mean ± SD): 5.2 ± 0.9 g | Body weight gain in 5 weeks (db/db mice [1]; 150 mg/kg gavage once per day, individual mice, 150 mg/kg): 6 grams and 5 grams and 4 grams | Body weight compared with vehicle (db/db mice [1]; 5 weeks, BJ 75 and 150 mg/kg, BBR 150 mg/kg, Ibu 150 mg/kg): lower body weight than the db/db mice treated with the vehicle | insulin level (Figure 5b) (db/db mice [2]; BJ 75mg/kg): 10.1686 and 14.5706 and 11.3611 and 13.6498 and 12.9045 and 14.3689 | insulin level (Figure 5b) (db/db mice [2]; BJ 150mg/kg): 10.5413 and 10.778 and 14.6188 and 12.4266 and 11.7294 and 13.6718 | Fasting serum insulin levels (db/db mice [2]; 75 mg/kg): did not produce significant effects | Fasting serum insulin levels (db/db mice [2]; 150 mg/kg): significantly reduced the fasting serum insulin levels | Weekly fasting glucose levels of db/db mice (Figure 5a) (db/db mice [3]; BJ 75mg/kg, 1st of 6 weekly columns (time not given)): 10.4 and 12.5 and 9.4 and 17.8 and 11.6 and 18.6 and 12.1 and 17.5 and 20.6 and 14.4 | Weekly fasting glucose levels of db/db mice (Figure 5a) (db/db mice [3]; BJ 75mg/kg, 2nd of 6 weekly columns (time not given)): 21.7 and 12.2 and 16.6 and 18.3 and 16.2 and 21.2 and 15.0 and 18.5 and 24.4 and 17.9 | Weekly fasting glucose levels of db/db mice (Figure 5a) (db/db mice [3]; BJ 75mg/kg, 3rd of 6 weekly columns (time not given)): 27.0 and 17.1 and 16.6 and 26.0 and 22.1 and 24.6 and 22.7 and 19.1 and 24.8 and 20.1 | Weekly fasting glucose levels of db/db mice (Figure 5a) (db/db mice [3]; BJ 75mg/kg, 4th of 6 weekly (time not given)): 16.0 and 19.4 and 17.3 and 23.1 and 21.0 and 18.7 and 20.0 and 16.7 and 18.3 and 19.6 | Weekly fasting glucose levels of db/db mice (Figure 5a) (db/db mice [3]; BJ 75mg/kg, 5th of 6 weekly (time not given)): 8.5 and 16.1 and 10.1 and 17.8 and 19.9 and 13.5 and 18.2 and 12.3 and 18.1 and 11.2 | Weekly fasting glucose levels of db/db mice (Figure 5a) (db/db mice [3]; BJ 75mg/kg, 6th of 6 weekly (time not given)): 8.3 and 14.2 and 11.5 and 16.0 and 17.3 and 15.9 and 14.1 and 11.0 and 16.7 and 10.7 | Weekly fasting glucose levels of db/db mice (Figure 5a) (db/db mice [3]; BJ 150mg/kg, 1st of 6 weekly columns (time not given)): 19.4 and 13.4 and 14.8 and 9.9 and 15.4 and 23.3 and 12.6 | Weekly fasting glucose levels of db/db mice (Figure 5a) (db/db mice [3]; BJ 150mg/kg, 2nd of 6 weekly columns (time not given)): 13.5 and 10.8 and 19.3 and 10.6 and 16.2 and 16.8 and 22.9 and 16.4 | Weekly fasting glucose levels of db/db mice (Figure 5a) (db/db mice [3]; BJ 150mg/kg, 3rd of 6 weekly columns (time not given)): 19.8 and 11.7 and 18.2 and 15.6 and 20.6 and 18.3 | Weekly fasting glucose levels of db/db mice (Figure 5a) (db/db mice [3]; BJ 150mg/kg, 4th of 6 weekly (time not given)): 11.5 and 5.7 and 10.5 and 13.7 and 14.1 and 14.7 | Weekly fasting glucose levels of db/db mice (Figure 5a) (db/db mice [3]; BJ 150mg/kg, 5th of 6 weekly (time not given)): 6.7 and 14.3 and 13.7 and 9.3 and 8.8 and 13.9 | Weekly fasting glucose levels of db/db mice (Figure 5a) (db/db mice [3]; BJ 150mg/kg, 6th of 6 weekly (time not given)): 6.5 and 5.0 and 10.0 and 11.4 and 7.4 and 7.3 and 17.8 | Blood (serum) glucose levels compared with vehicle (db/db mice [3]; db/db mice, BJ 75 and 150 mg/kg, BBR 150 mg/kg, Ibu 150 mg/kg): slowed the increase in glucose levels | Fasting blood glucose level at the end of the treatment (db/db mice [3]; 75 mg/kg): 13.6 ± 3.0 mmol/L | Fasting blood glucose level at the end of the treatment (db/db mice [3]; 150 mg/kg): 9.4 ± 3.6 mmol/L | p-TBK1 (p-TBK1, p-AMPKα, UCP1; Tnfa + 3um BJ): 0.5551 and 0.4207 and 0.3485 | p-TBK1 (p-TBK1, p-AMPKα, UCP1; Tnfa + 10um BJ): 0.5649 and 0.4409 and 0.466 | Expression of p-AMPKα, UCP1, and p-TBK1 (p-TBK1, p-AMPKα, UCP1; TNF-α induced 3T3-L1 adipocytes, BJ treatment for 24 h): increased significantly | UCP1 (western blotting, Figure 7k) (p-TBK1, p-AMPKα, UCP1; Tnfa + 3um): 0.6944 and 0.7423 and 0.5922 | p-AMPKα (western blotting, Figure 7j) (p-TBK1, p-AMPKα, UCP1; Tnfa + 3um): 0.6086 and 0.4894 and 0.5999 | UCP1 (western blotting, Figure 7k) (p-TBK1, p-AMPKα, UCP1; Tnfa + 10um): 1.271 and 1.387 and 0.9844 | p-AMPKα (western blotting, Figure 7j) (p-TBK1, p-AMPKα, UCP1; Tnfa + 10um): 0.7332 and 0.6589 and 0.63
